Experimental data: patent publication US10519105B2, “KCNQ2-5 channel activator” (ONO PHARMACEUTICAL CO., LTD., priority 2016, dated 2019)
Values after ≈ are worked out from the molar mass of the structure shown.

Experiments:
[1] = Stability in human liver microsomes; type: in vitro ADME; details: human liver microsomes 0.5 mg/mL, NADPH, 5 μM, 37° C., 15 minutes
Description: A test compound (a 10 mM DMSO solution, 5 μL) was diluted with a 50% aqueous acetonitrile solution (195 μL), whereby a 0.25 mM solution was prepared.
To a reaction vessel preheated to 37° C., 0.5 mg/mL of human liver microsomes (XenoTech, LLC) and 245 JLL of a 0.1 M phosphate buffer solution (pH 7.4) containing NADPH co-factor (BD Biosciences) were added, followed by preincubation for 5 minutes, and thereafter, the above-prepared test compound solution (5 μL) was added thereto to start a reaction (final concentration: 5 μM). Immediately after the start, a 20 μL portion was collected and added to 180 μL of acetonitrile containing an internal standard substance (warfarin) to stop the reaction. A 20 μL portion of this solution was stirred with 180 μL of a 50% aqueous acetonitrile solution on a plate equipped with a deproteinization filter, followed by suction filtration, and the filtrate was used as a standard sample.
After the above-prepared reaction solution was incubated at 37° C. for 15 minutes, a 20 μL portion of the solution was added to 180 μL of cooled acetonitrile (containing warfarin serving as an internal standard substance) to stop the reaction. A 20 μL portion of this solution was stirred with 180 μL of a 50% aqueous acetonitrile solution on a plate equipped with a deproteinization filter, followed by suction filtration, and the filtrate was used as a reaction sample.
A residual ratio (%) was calculated as follows. 1 μL of the sample solution was injected into LC-MS/MS (Discovery Max, manufactured by Thermo Scientific, Inc.), and a value obtained by dividing the peak area ratio of the reaction sample (peak area of test compound/peak area of internal standard substance) by the peak area ratio of the standard sample was multiplied by 100.

Human KCNQ2/3 channel = molecular target: T1, Human KCNQ2/3 channel (Homo sapiens, UniProt O43525+O43526); test: Opening action with respect to KCNQ2/3 channel by depolarization stimulation (thallium influx, FLIPR); type: cell-based; details: concentration giving 50% of the maximum reaction of retigabine (10 μM); human KCNQ2/3 expressing CHO-DHFR- cells; read-out: KCNQ2/3 ECrtg50
T1 construct: expressed in transfected cells; host or cells: CHO-DHFR- cells
Description: Human KCNQ2/3 expression cells (CHO-DHFR− cells) were seeded in each well of a 384-well plate (collagen-coated, black, clear bottom) at 0.5×10^4 cells/50 μL per well and cultured using a MEM ALPHA medium (containing 10 vol % inactivated (56° C., 30 min) fetal bovine serum, 100 IU/mL penicillin, 100 μg/mL streptomycin, and 2 mM L-glutamine) at 37° C. in 5% CO2 for 18 to 24 hours. After the medium in the plate was removed, incubation (room temperature, 60 minutes, shading) was performed in a loading buffer (prepared by the method described in the manual of FluxOR Thallium Detection Kit (Invitrogen, F10016, F10017)). A KCNQ2/3 channel opening action (thallium influx into cells) by depolarization stimulation (5 mM potassium and 0.5 mM thallium) was measured by FLIPR TETRA (Molecular Devices). The compound of the present invention was treated 5 minutes before the depolarization stimulation, and the reaction induced by the depolarization stimulation was measured over time for 180 seconds. The channel opening action of the compound of the present invention was evaluated based on the change amount of the fluorescence intensity from the time before the depolarization stimulation to the time after the elapse of 180 seconds, and the concentration (ECrtg50) satisfying 50% of the fluorescence intensity change of a maximum reaction (in the treatment at 10 μM) of retigabine under the conditions of this experiment was calculated.

hERG IKr current = molecular target: T2, hERG IKr current (Homo sapiens, UniProt Q12809); test: Action on hERG IKr current (patch-clamp, HEK293 cells overexpressing hERG); type: cell-based; details: maximum tail current, 10 minutes after application, read-out: 50% hERG channel inhibitory activity
T2 construct: expressed in transfected cells; host or cells: HEK293 cells
Description: By using HEK293 cells overexpressing a human ether-a-go-go-related gene (hERG), the maximum tail current of the hERG IKr current induced by redepolarization pulse subsequent to depolarization pulse was measured by a patch-clamp method, and the percent change (suppression ratio) after 10 minutes from application of a test substance with respect to the maximum tail current before the application of the test substance was calculated (see, Biophysical Journal, vol. 74, pp. 230-241 (1998)).

[2] = test system: bladder extracted from rat; test: Relaxing action on bladder extracted from rat (carbachol-induced contraction, Magnus tube); details: rat bladder strip, carbachol 1 μM contraction; read-out: IC20 (percent change in tension -20%)
Description: Female Jcl:Wistar rats (CLEA Japan, Inc., body weight at use: 170 to 200 g) were anesthetized by intraperitoneal administration of about 40 mg/kg of pentobarbital (Somnopentyl, Schering Plough Animal Health Corporation), and killed by bloodletting. The bladder was extracted by abdominal incision and immediately thereafter immersed in ice-cooled Krebs buffer (Krebs Ringer bicarbonate buffer (Sigma-Aldrich Co. LLC) supplemented with sodium hydrogen carbonate (final concentration: 15 mM) and calcium chloride (final concentration: 2.5 mM)) saturated with a mixed gas (95% O2, 5% CO2).
The bladder body extracted from each rat was cut into an oblong strip shape (about 10×3 mm), whereby a specimen was prepared on ice. Immediately thereafter, the specimen was suspended in a Magnus tube filled with Krebs buffer (37° C.) bubbled with the mixed gas while applying a tension load of 500 mg thereto. Incidentally, the specimen was prepared within 24 hours after extracting the tissue.
After the elapse of one hour or more from the suspension of the specimen, 2.5 M KCl was added thereto to a final concentration of 100 mM, and the specimen in which a contraction reaction could be confirmed was used.
Carbachol (a contraction inducer) contraction was induced at a concentration of 1 μM. […] After the contraction reaction was stabilized, physiological saline or the compound of the present invention was added thereto to a final concentration of 1 nM, 10 nM, 100 nM, 1 μM, and […] in a cumulative manner from a low concentration.
The tension (mg) in the extracted bladder was used as an evaluation item. The tension was read using analysis software WAVE THERMO 1000. A percent change in tension after adding the compound of the present invention when the tension after adding the contraction inducer was taken as 0% was defined as a percent change in tension (%) and used as an evaluation index. The percent change in tension (%) is calculated according to the following formula. percent change in tension (%)={tension (mg) after adding compound of the present invention and the like−tension (mg) before adding contraction inducer}/{tension (mg) after adding contraction inducer−tension (mg) before adding contraction inducer}×100−100
The value at which the percent change in tension (%) was −20% was calculated as IC20 and used as an index of the relaxing action on the extracted bladder.

[3] = Solubility test (DMSO precipitation method, Japanese Pharmacopoeia dissolution test second solution); type: physicochemical; details: aqueous buffer, kinetic from dmso stock, JP dissolution test second solution pH 6.8, room temperature, quantification range 5 to 100 μM
Description: A calibration curve solution was prepared at 0.1, 0.4, and 2 μM by diluting a test substance (a 10 mM DMSO solution) with acetonitrile and adding acetonitrile containing an internal standard substance (candesartan).
A sample solution was prepared as follows. 5 μL of the compound of the present invention (a 10 mM DMSO solution) was added to 495 μL of the Japanese Pharmacopoeia dissolution test second solution (pH: 6.8), followed by stirring at room temperature for 5 hours. Then, the solution was transferred to a solubility filter plate and subjected to suction filtration. The filtrate (20 μL) was diluted with acetonitrile, followed by adding acetonitrile containing an internal standard substance (candesartan).
Each of the calibration curve and sample solutions (5 μL) was injected into LC-MS/MS (Discovery Max, manufactured by Thermo Scientific, Inc.) and subjected to quantification (quantification range: 5 to 100 μM). The solubility in the case where the value equal to or less than the quantification range was obtained was defined as <5 μM, and the solubility in the case where the value equal to or more than the quantification range was obtained was defined as […].

T2 sequence (Q12809 whole entry): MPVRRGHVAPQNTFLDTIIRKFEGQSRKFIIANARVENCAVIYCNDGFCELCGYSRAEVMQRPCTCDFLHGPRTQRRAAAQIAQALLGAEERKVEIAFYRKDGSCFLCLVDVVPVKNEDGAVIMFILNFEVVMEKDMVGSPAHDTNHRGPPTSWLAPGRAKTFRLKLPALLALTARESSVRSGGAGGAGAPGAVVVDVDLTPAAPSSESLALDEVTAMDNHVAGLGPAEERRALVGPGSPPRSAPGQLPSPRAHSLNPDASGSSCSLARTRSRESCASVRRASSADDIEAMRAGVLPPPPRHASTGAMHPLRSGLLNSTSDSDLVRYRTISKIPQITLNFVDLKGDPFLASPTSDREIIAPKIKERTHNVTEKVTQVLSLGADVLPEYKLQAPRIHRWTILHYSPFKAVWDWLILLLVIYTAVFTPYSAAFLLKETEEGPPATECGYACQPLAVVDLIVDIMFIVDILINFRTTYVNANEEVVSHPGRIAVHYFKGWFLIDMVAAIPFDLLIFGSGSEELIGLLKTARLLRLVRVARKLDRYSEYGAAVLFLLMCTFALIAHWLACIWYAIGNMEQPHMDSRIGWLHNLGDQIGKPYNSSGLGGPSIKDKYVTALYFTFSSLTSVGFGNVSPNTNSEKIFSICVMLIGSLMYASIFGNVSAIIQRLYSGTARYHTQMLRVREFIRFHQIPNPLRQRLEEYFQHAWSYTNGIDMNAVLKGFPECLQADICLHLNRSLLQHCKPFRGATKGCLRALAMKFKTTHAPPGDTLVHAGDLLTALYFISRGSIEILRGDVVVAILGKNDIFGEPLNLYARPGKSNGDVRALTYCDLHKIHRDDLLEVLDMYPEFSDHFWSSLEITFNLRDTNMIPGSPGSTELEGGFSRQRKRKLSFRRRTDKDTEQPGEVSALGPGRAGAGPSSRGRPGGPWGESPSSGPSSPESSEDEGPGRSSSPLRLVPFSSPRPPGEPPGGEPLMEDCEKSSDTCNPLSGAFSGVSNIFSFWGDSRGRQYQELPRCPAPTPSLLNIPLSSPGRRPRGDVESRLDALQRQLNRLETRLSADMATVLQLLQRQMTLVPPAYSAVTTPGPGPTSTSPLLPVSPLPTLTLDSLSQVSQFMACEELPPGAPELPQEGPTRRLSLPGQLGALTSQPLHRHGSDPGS

In the case of CC1(O)CCc2c1cc(Cl)c(NC(=O)NCc1ccc(C(F)(F)F)cn1)c2Cl (single isomer, unassigned) [Example 4(4), 1-(4,6-dichloro-1-hydroxy-1-methyl-2,3-dihydro-1H-inden-5-yl)-3-{[5-(trifluoromethyl)-2-pyridinyl]methyl}urea], the Residual ratio [1] is reported as 98%, the EC50 (Human KCNQ2/3 channel) is reported as 300 nM and the IC50 (hERG IKr current) is reported as > 10000 nM.

For C[C@@H](NC(=O)Nc1c(Cl)cc2c(c1Cl)CCC2(O)C(F)(F)F)c1ccc(F)cc1 (stereo partly drawn) [Example 12(5), 1-[4,6-dichloro-1-hydroxy-1-(trifluoromethyl)-2,3-dihydro-H-inden-5-yl]-3-[(1R)-1-(4-fluorophenyl)ethyl]urea], the IC50 (hERG IKr current) was > 10000 nM and the IC20 [2] was 30 nM.

With O=C(NCc1ccc(F)cc1)Nc1c(Cl)cc2c(c1Cl)CCC2(O)C(F)(F)F (stereo not shown) [Example 12, 1-[4,6-dichloro-1-hydroxy-1-(trifluoromethyl)-2,3-dihydro-1H-inden-5-yl]-3-(4-fluorobenzyl)urea] the Residual ratio [1] was 94%, the EC50 (Human KCNQ2/3 channel) was 5 nM and the solubility at 5 h [3] was 82 µM (≈ 35.9 µg/mL). The IC50 (hERG IKr current) was > 10000 nM and the IC20 [2] was 10 nM.

Work on O=C(NCc1ccc(C(F)(F)F)cn1)Nc1c(Cl)cc2c(c1Cl)CCC2(O)C(F)(F)F (stereo not shown) [Example 12(4), 1-[4,6-dichloro-1-hydroxy-1-(trifluoromethyl)-2,3-dihydro-1H-inden-5-yl]-3-{[5-(trifluoromethyl)-2 pyridinyl]methyl}urea] yielded a Residual ratio [1] of 77%, an EC50 (Human KCNQ2/3 channel) of 2 nM and a solubility at 5 h [3] of 87 µM (≈ 42.5 µg/mL). For the same compound, the IC20 [2] was 10 nM.

CC1(O)c2cc(Cl)c(NC(=O)NCc3ccc(F)cc3)c(Cl)c2CC1(F)F (stereo not shown) [Example 42, 1-(4,6-dichloro-2,2-difluoro-1-hydroxy-1-methyl-2,3-dihydro-1H-inden-5-yl)-3-(4-fluorobenzyl)urea] gave a Residual ratio [1] of 90%, an EC50 (Human KCNQ2/3 channel) of 200 nM and a solubility at 5 h [3] of 87 µM (≈ 36.5 µg/mL). The IC50 (hERG IKr current) was > 10000 nM and the IC20 [2] was 100 nM.
